Test [1] has as its system Staphylococcus aureus ATCC 25913. Briefly: in vitro antibacterial MIC, agar plate dilution. Type of test: cell-based. To be noted: ATCC25913, 18 hours, 35° C. The procedure:
(§1) The in vitro antimicrobial spectrum of the compounds of ths invention were determined by the agar plate dilution method with Mueller-Hinton agar and an inoculum of each test organism of approximately 10^4 colony forming units delivered by the Steers replicating device. The minimal inhibitory concentration (MIC) in mcg/ml is defined as the lowest concentration of test compound that inhibited visible growth after 18 hours incubation at 35° C. Results are given in Table I, with the test compounds identified by the number of their hereinafter described examples.

Test [2] has as its system Klebsiella pneumoniae AD. Briefly: in vitro antibacterial MIC, agar plate dilution. Type of test: cell-based. To be noted: Klebsiella pneumoniae, 18 h, 35° C., read-out: MIC. The procedure: as §1
The test system of test [3] is Enterobacter cloacae VGH 84-37. Briefly: in vitro antibacterial MIC, agar plate dilution. Type of test: cell-based. To be noted: Enterobacter cloacae, VGH8437, 18 h, 35° C., read-out: MIC. The procedure:
as §1

The test system of test [4] is Pseudomonas aeruginosa VGH 84-4. Briefly: in vitro antibacterial MIC, agar plate dilution. It counts as cell-based. To be noted: Pseudomonas aeruginosa, VGH844, 18 h, 35° C., read-out: MIC. The procedure: as §1
Test [5] has as its system Escherichia coli CMC 84-11. The experiment in a line: in vitro antibacterial MIC, agar plate dilution. It counts as cell-based. To be noted: Escherichia coli, CMC8411, 18 h, 35° C., read-out: MIC. The procedure: as §1
For test [6], the system named is Proteus rettgeri CMC 84-41. Briefly: in vitro antibacterial MIC, agar plate dilution. To be noted: Providencia rettgeri, CMC8441, 18 h, 35° C., read-out: MIC. It counts as cell-based. The procedure: as §1
The subject of test [7] is Escherichia coli ATCC 25922. Briefly: in vitro antibacterial MIC, agar plate dilution. It counts as cell-based. To be noted: Escherichia coli, ATCC25922, 18 h, 35° C., read-out: MIC. The procedure:
as §1

In test [8] the test system is Morganella morganii VGH 84-11. The experiment in a line: in vitro antibacterial MIC, agar plate dilution. It counts as cell-based. To be noted: VGH8411, 18 hours, 35° C., read-out: MIC. The procedure: as §1
The test system of test [9] is Staphylococcus aureus Smith. The experiment in a line: in vitro antibacterial MIC, agar plate dilution. Type of test: cell-based. To be noted: Staphylococcus aureus, 18 h, 35° C., read-out: MIC. The procedure: as §1
The subject of test [10] is Enterobacter aerogenes VGH 84-36. Briefly: in vitro antibacterial MIC, agar plate dilution. It counts as cell-based. To be noted: Klebsiella aerogenes, VGH8436, 18 hours, 35° C., read-out: MIC. The procedure:
as §1

In test [11] the test system is Klebsiella pneumoniae MOR 84-4. The experiment in a line: in vitro antibacterial MIC, agar plate dilution. Type of test: cell-based. To be noted: Klebsiella pneumoniae, MOR844, 18 h, 35° C., read-out: MIC. The procedure:
as §1

The subject of test [12] is Klebsiella pneumoniae AD. The experiment in a line: in vivo antibacterial activity, survival of infected mice (Table II). The arrangement: species or system Charles River CD-1 mice. To be noted: subcutaneous. The procedure: Charles River CD-1 mice were infected with either Klebsiella pneumoniae AD or Staphylococcus aureus Smith. A single subcutaneous dose of the test compound was administered 1/2 hour after infection. […] The results appear in Tables II and III, wherein the representative test compounds are identified by the number of their hereinafter described examples.

Test [13] concerns Streptococcus faecalis ATTC 29212. Briefly: in vitro antibacterial MIC, agar plate dilution. Type of test: cell-based. To be noted: Enterococcus faecalis, ATTC29212, 18 hours, 35° C., read-out: MIC. The procedure: as §1

Molecules are shown by their SMILES. Values after ≈ are worked out from the molar mass of the structure shown.

A word on the MIC: it is the lowest concentration that inhibits growth of the organism. `CCn1cc(C(=O)O)c(=O)c2cc(F)c(N3CCNC(c4sccc4C)C3)cc21` (stereo not drawn) [Example 16, 1-Ethyl-6-fluoro-1,4-dihydro-7-[3-(3-methyl-2-thienyl)-1-piperazinyl]-4-oxo-3-quinolinecarboxylic acid]: the minimum inhibitory concentration (MIC) was 1 µg/mL (≈ 2.41 µM) in test [1]; 4 µg/mL (≈ 9.63 µM) in test [2]; 8 µg/mL (≈ 19.3 µM) in test [3]; above 256 µg/mL in test [4]; 4 µg/mL (≈ 9.63 µM) in test [5]; 8 µg/mL (≈ 19.3 µM) in [6]. In addition, the MIC in test [7] worked out at 8 µg/mL (≈ 19.3 µM); in [8], 4 µg/mL (≈ 9.63 µM); in [9] it was 0.5 µg/mL (≈ 1.2 µM); in [10], 8 µg/mL (≈ 19.3 µM); in test [11], 8 µg/mL (≈ 19.3 µM). The “Survival Ratio 7 Days After Infection” value in [12] (0.25 mg/kg single dose) is given as 0/5; in test [12] (1 mg/kg single dose), 0/5; in test [12] (4 mg/kg single dose), 1/5; in [12] (16 mg/kg single dose) it was 1/5.
Consider `CCn1cc(C(=O)O)c(=O)c2cc(F)c(N3CCNC(c4ccn(S(=O)(=O)c5ccccc5)c4)C3)cc21` (stereo not drawn) [Example 44, 1-Ethyl-6-fluoro-1,4-dihydro-4-oxo-7-[3-[1-(phenylsulfonyl)-1H-pyrrol-3-yl]-1-piperazinyl]-3-quinolinecarboxylic acid], for which the MIC in test [1] is 0.5 µg/mL (≈ 0.953 µM); in test [2], 4 µg/mL (≈ 7.63 µM); in test [3], 4 µg/mL (≈ 7.63 µM); in test [13] it was 4 µg/mL (≈ 7.63 µM); in test [4], above 256 µg/mL; in [5] it was 4 µg/mL (≈ 7.63 µM). Moreover, the minimum inhibitory concentration (MIC) in test [6] came to 4 µg/mL (≈ 7.63 µM); in [7], 2 µg/mL (≈ 3.81 µM); in [8] it was 4 µg/mL (≈ 7.63 µM); in [9], 0.25 µg/mL (≈ 0.477 µM); in [10] it was 16 µg/mL (≈ 30.5 µM); in test [11] it was 8 µg/mL (≈ 15.3 µM).
As to `CCn1cc(C(=O)O)c(=O)c2cc(F)c(N3CCNC(CN4CCN(C)CC4)C3)cc21` (stereo not drawn) [Example 4, 1-Ethyl-6-fluoro 1,4-dihydro-7-[3-[(4-methyl-1-piperazinyl)methyl]-1-piperazinyl]-4-oxo-3-quinolinecarboxylic acid], the MIC was 64 µg/mL (≈ 148 µM) in test [1]; 8 µg/mL (≈ 18.5 µM) in [2]; 4 µg/mL (≈ 9.27 µM) in test [3]; 64 µg/mL (≈ 148 µM) in test [4]; 8 µg/mL (≈ 18.5 µM) in [5]; 32 µg/mL (≈ 74.2 µM) in [6]. The minimum inhibitory concentration (MIC) in test [7] stood at 8 µg/mL (≈ 18.5 µM); in test [8], 4 µg/mL (≈ 9.27 µM); in [9] it was 8 µg/mL (≈ 18.5 µM); in [10], 16 µg/mL (≈ 37.1 µM); in test [11], 16 µg/mL (≈ 37.1 µM). Moreover, the “Survival Ratio 7 Days After Infection” value is recorded as 0/5 in [12] (0.25 mg/kg single dose); 0/5 in test [12] (1 mg/kg single dose); 4/5 in test [12] (4 mg/kg single dose); 5/5 in [12] (16 mg/kg single dose); 5/5 in test [12] (64 mg/kg single dose).
`CCn1cc(C(=O)O)c(=O)c2cc(F)c(N3CCNC(c4cc(C)sc4C)C3)cc21` (stereo not drawn) [Example 48, 7-[3-(2,5-Dimethyl-3-thienyl)-1-piperazinyl]-1-ethyl-6-fluoro-1,4-dihydro-4-oxo-3-quinolinecarboxylic acid]: the minimum inhibitory concentration (MIC) in test [1] was 0.25 µg/mL (≈ 0.582 µM); in test [2], 1 µg/mL (≈ 2.33 µM); in [3], 2 µg/mL (≈ 4.66 µM); in [13], 0.25 µg/mL (≈ 0.582 µM); in test [4], 32 µg/mL (≈ 74.5 µM); in [5], 1 µg/mL (≈ 2.33 µM). For the same compound, the minimal inhibitory concentration (MIC) amounted to 2 µg/mL (≈ 4.66 µM) in test [6]; 1 µg/mL (≈ 2.33 µM) in [7]; 2 µg/mL (≈ 4.66 µM) in test [8]; 0.25 µg/mL (≈ 0.582 µM) in [9]; 2 µg/mL (≈ 4.66 µM) in [10]; 2 µg/mL (≈ 4.66 µM) in [11].
On to `CCn1cc(C(=O)O)c(=O)c2cc(F)c(N3CCNC(CF)C3)cc21` (stereo not drawn) [Example 24], for which the minimum inhibitory concentration (MIC) in test [1] was at most 0.12 µg/mL; in test [2], at most 0.12 µg/mL; in test [3], at most 0.12 µg/mL; in [13] it was 2 µg/mL (≈ 5.69 µM); in [4], 2 µg/mL (≈ 5.69 µM); in test [5], at most 0.12 µg/mL. In addition, the minimum inhibitory concentration (MIC) in [6], in [7], in [8], in test [9], in [10] and in test [11] was at most 0.12 µg/mL in each case.
As to `CCn1cc(C(=O)O)c(=O)c2cc(F)c(N3CCNC(c4cc5ccccc5o4)C3)cc21` (stereo not drawn) [Example 46, 7-[3-(2-Benzofuranyl)-1-piperazinyl]-1-ethyl-6-fluoro-1,4-dihydro-4-oxo-3-quinolinecarboxylic acid], the MIC was at most 0.12 µg/mL in [1]; 0.5 µg/mL (≈ 1.15 µM) in [2]; 0.5 µg/mL (≈ 1.15 µM) in test [3]; 1 µg/mL (≈ 2.3 µM) in test [13]; 8 µg/mL (≈ 18.4 µM) in test [4]; 0.25 µg/mL (≈ 0.574 µM) in test [5]. Moreover, the minimum inhibitory concentration (MIC) in [6] is 0.5 µg/mL (≈ 1.15 µM); in test [7], 0.25 µg/mL (≈ 0.574 µM); in [8], 0.5 µg/mL (≈ 1.15 µM); in test [9], at most 0.12 µg/mL; in [10], 1 µg/mL (≈ 2.3 µM); in test [11], 1 µg/mL (≈ 2.3 µM).
With `CCn1cc(C(=O)O)c(=O)c2cc(F)c(N3CCNC(c4sc5ccc(Cl)cc5c4C)C3)cc21` (stereo not drawn) [Example 20, 7-[3-(5-Chloro-3-methylbenzo[b]thien-2-yl)-1-piperazinyl]-1-ethyl-6-fluoro-1,4-dihydro-4-oxo-3-quinolinecarboxylic acid], the MIC in test [1], in test [2], in test [3], in test [13], in [4] and in test [5] was above 256 µg/mL throughout. For the same compound, the minimum inhibitory concentration (MIC) in test [6], in [7], in test [8], in test [9], in test [10] and in test [11] was above 256 µg/mL throughout.
For the compound `CCn1cc(C(=O)O)c(=O)c2cc(F)c(N3CCNC(CO)C3)cc21.Cl` (stereo not drawn) [Example 5, 1-Ethyl-6-fluoro-1,4-dihydro-7[3-(hydroxymethyl)-1-piperazinyl]-4-oxo-3-quinolinecarboxylic acid, hydrochloride], the minimal inhibitory concentration (MIC) is 32 µg/mL in test [1]; 0.5 µg/mL in test [2]; 1 µg/mL in test [3]; 8 µg/mL in test [4]; 1 µg/mL in [5]; 1 µg/mL in [6]. The MIC turned out to be 2 µg/mL in [7]; 0.5 µg/mL in test [8]; 8 µg/mL in test [9]; 16 µg/mL in test [10]; 2 µg/mL in test [11]. Moreover, the “Survival Ratio 7 Days After Infection” value in test [12] (0.25 mg/kg single dose) is 0/5; in [12] (1 mg/kg single dose), 0/5; in test [12] (4 mg/kg single dose) it was 0/5; in test [12] (16 mg/kg single dose), 0/5; in test [12] (64 mg/kg single dose), 5/5.
As to `CN(C)CC1CNCCN1` (stereo not drawn) [Example 1, N,N-Dimethyl-2-piperazinemethanamine], the “Survival Ratio 7 Days After Infection” value is given as 0/5 in [12] (0.25 mg/kg single dose), 0/5 in test [12] (1 mg/kg single dose), 1/5 in test [12] (4 mg/kg single dose) and 5/5 in [12] (16 mg/kg single dose).
`CCn1cc(C(=O)O)c(=O)c2cc(F)c(N3CCN(C)C(COc4ccccc4)C3)cc21` (stereo not drawn) [Example 11, 1-Ethyl-6-fluoro-1,4-dihydro-7-[4-methyl-3-(phenoxy-methyl)-1-piperazinyl]-4-oxo-3-quinolinecarboxylic acid]: the minimal inhibitory concentration (MIC) in test [1] was found to be 2 µg/mL (≈ 4.55 µM); in [2], 4 µg/mL (≈ 9.1 µM); in test [3] it was 4 µg/mL (≈ 9.1 µM); in test [4] it was 64 µg/mL (≈ 146 µM); in test [5], 2 µg/mL (≈ 4.55 µM); in [6] it was 2 µg/mL (≈ 4.55 µM). Further, the minimal inhibitory concentration (MIC) in test [7] amounted to 4 µg/mL (≈ 9.1 µM); in test [8] it was 4 µg/mL (≈ 9.1 µM); in [9], 1 µg/mL (≈ 2.28 µM); in test [10], 8 µg/mL (≈ 18.2 µM); in [11], 8 µg/mL (≈ 18.2 µM).
On to `Clc1ccc2oc(C3CNCCN3)cc2c1` (stereo not drawn) [Example 17, 2-(5-Chloro-2-benzofuranyl)piperazine], for which the “Survival Ratio 7 Days After Infection” value was 0/5 in test [12] (0.25 mg/kg single dose); 0/5 in [12] (0.5 mg/kg single dose); 0/5 in [12] (1 mg/kg single dose); 0/5 in test [12] (2 mg/kg single dose); 1/5 in test [12] (4 mg/kg single dose); 5/5 in test [12] (8 mg/kg single dose). In addition, the “Survival Ratio 7 Days After Infection” value in test [12] (16 mg/kg single dose) was 5/5.

Values taken from patent publication US5210193A, “Piperazine derivatives” (American Cyanamid Company, priority 1990, dated 1993).
